Experimental findings from US20210361768A1, “METHODS AND MATERIALS FOR ASSESSING AND TREATING CANCERS” (Mayo Foundation for Medical Education and Research, priority 2018, published 2021) are described below.

This assay relates to HER2-positive breast cancer. Put plainly: NeoALTTO trial: pathologic complete response and event-free survival by treatment arm and adaptive immune signature (AIS) status. It is filed as in vivo, human. The following applies: NeoALTTO patients.
Setting [1] is: AIS deficient, listed as lapatinib.

Turning to `CS(=O)(=O)CCNCc1ccc(-c2ccc3ncnc(Nc4ccc(OCc5cccc(F)c5)c(Cl)c4)c3c2)o1` [Lapatinib, lapatinib], the “%6-yr EFS (6-year Event Free Survival rate)” value reads like this: (AIS deficient) 68%; under setting [1], 68%; (AIS enrich) 65%. Also, the “% pCR (complete pathological response rate)” value by setting is: (AIS deficient) 17%; under setting [1], 17%; (AIS enrich) 21%.
